The data set is described as follows: Entrapment efficiency by absorbance. The format is physicochemical. Conditions: sensitizer and emitter loading in TTA-MSNs. How it is done: Next, TTA-MSNs were prepared dependence on the following steps. MSNs (50.0 mg) were dispersed 25 mL round flask in of BDP-F (2 mg), PEA (3 mg) and methyl oleate (150 mg) in THF (10 mL). The mixture solution was stirred until organic solvent evaporation (about 12 h) at room temperature in the dark condition. And then 10 mL PBS buffer was added. The mixture was ultrasonic shocked for 20 min. to make the nanoparticles dispersed in the PBS buffer. Then the BDP-F (sensitizer) and PEA (emitter)-loaded silica nanoparticles were low speed centrifuged (1000 rpm/min) for 5 min. The supernatant was collected and then extracted using dichloromethane (DCM). The DCM solvent containing BDP-F and PEA was used to measure sensitizer and emitter loading by collecting UV-vis absorption spectra using a molar absorption coefficient of 177500 M^−1 cm^−1 with)max=615 nm for BDP-F, 18000 M^−1cm^−1 with λmax=420 nm for PEA. Sensitizer and emitter loading were calculated using the following equation: Entrapment efficiency(%)=absorption of the loaded dye/absorption initial mass of the dye×100%.
The precipitate sample was extracted with 10 mL DCM. And then absorbance of Cou-C was measured to calculate the entrapment efficiency. Entrapment efficiency(%)=1−absorption of the unloaded prodrug/initial mass of the prodrug×100%.

Molecules are shown by their SMILES.

Consider `C(#Cc1c2ccccc2cc2ccccc12)c1ccccc1` [PEA, 9-phenylacetylene anthracene], for which the entrapment efficiency came to 72%.

Values taken from US11827655B2, “Triplet-triplet annihilation upconversion system, and compositions and methods thereof for drug delivery” (University of Massachusetts, priority 2017, dated 2023).
